How the values were obtained:
[1] = biological target: Tyrosine-protein kinase ABL2 (Homo sapiens) (UniProt P42684); conditions: Compound concentration 1000.0 nM
[2] = biological target: Tyrosine-protein kinase Blk (Homo sapiens) (UniProt P51451); conditions: Compound concentration 1000.0 nM
[3] = biological target: Cyclin-dependent kinase 11A (Homo sapiens) (UniProt Q9UQ88); conditions: Compound concentration 1000.0 nM
[4] = biological target: Cyclin-dependent kinase 9 (Homo sapiens) (UniProt P50750); conditions: Compound concentration 1000.0 nM
[5] = biological target: Epithelial discoidin domain-containing receptor 1 (Homo sapiens) (UniProt Q08345); conditions: Compound concentration 1000.0 nM
[6] = system: Epidermal growth factor receptor (Homo sapiens), P00533 [UNDEFINED MUTATION]; conditions: Compound concentration 1000.0 nM
[7] = system: Epidermal growth factor receptor (Homo sapiens), P00533 [UNDEFINED MUTATION]; conditions: Compound concentration 1000.0 nM; remark: listed apart in the source
[8] = biological target: Ephrin type-A receptor 3 (Homo sapiens) (UniProt P29320); conditions: Compound concentration 1000.0 nM
[9] = system: Receptor-type tyrosine-protein kinase FLT3 (Homo sapiens), P36888 [D835Y]; conditions: Compound concentration 1000.0 nM
[10] = system: eIF-2-alpha kinase GCN2 (Homo sapiens), Q9P2K8 [S808G]; conditions: Compound concentration 1000.0 nM
[11] = biological target: G protein-coupled receptor kinase 4 (Homo sapiens) (UniProt P32298); conditions: Compound concentration 1000.0 nM
[12] = biological target: Homeodomain-interacting protein kinase 4 (Homo sapiens) (UniProt Q8NE63); conditions: Compound concentration 1000.0 nM
[13] = biological target: Serine/threonine-protein kinase ICK (Homo sapiens) (UniProt Q9UPZ9); conditions: Compound concentration 1000.0 nM
[14] = biological target: Mitogen-activated protein kinase 8 (Homo sapiens) (UniProt P45983); conditions: Compound concentration 1000.0 nM
[15] = biological target: Mitogen-activated protein kinase 10 (Homo sapiens) (UniProt P53779); conditions: Compound concentration 1000.0 nM
[16] = system: Mast/stem cell growth factor receptor Kit (Homo sapiens), P10721 [A829P]; conditions: Compound concentration 1000.0 nM
[17] = biological target: Serine/threonine-protein kinase 10 (Homo sapiens) (UniProt O94804); conditions: Compound concentration 1000.0 nM
[18] = biological target: Leucine-rich repeat serine/threonine-protein kinase 2 (Homo sapiens) (UniProt Q5S007); conditions: Compound concentration 1000.0 nM
[19] = biological target: Mitogen-activated protein kinase kinase kinase kinase 2 (Homo sapiens) (UniProt Q12851); conditions: Compound concentration 1000.0 nM
[20] = biological target: MAP/microtubule affinity-regulating kinase 4 (Homo sapiens) (UniProt Q96L34); conditions: Compound concentration 1000.0 nM
[21] = biological target: Dual specificity mitogen-activated protein kinase kinase 5 (Homo sapiens) (UniProt Q13163); conditions: Compound concentration 1000.0 nM
[22] = biological target: Mitogen-activated protein kinase kinase kinase 11 (Homo sapiens) (UniProt Q16584); conditions: Compound concentration 1000.0 nM
[23] = biological target: Serine/threonine-protein kinase 4 (Homo sapiens) (UniProt Q13043); conditions: Compound concentration 1000.0 nM
[24] = biological target: Myosin-IIIb (Homo sapiens) (UniProt Q8WXR4); conditions: Compound concentration 1000.0 nM
[25] = biological target: Serine/threonine-protein kinase 38 (Homo sapiens) (UniProt Q15208); conditions: Compound concentration 1000.0 nM
[26] = biological target: Serine/threonine-protein kinase 38-like (Homo sapiens) (UniProt Q9Y2H1); conditions: Compound concentration 1000.0 nM
[27] = biological target: Cyclin-dependent kinase 18 (Homo sapiens) (UniProt Q07002); conditions: Compound concentration 1000.0 nM
[28] = biological target: Platelet-derived growth factor receptor beta (Homo sapiens) (UniProt P09619); conditions: Compound concentration 1000.0 nM
[29] = biological target: Phosphatidylinositol 4-phosphate 3-kinase C2 domain-containing subunit beta (Homo sapiens) (UniProt O00750); conditions: Compound concentration 1000.0 nM
[30] = system: Phosphatidylinositol 4,5-bisphosphate 3-kinase catalytic subunit alpha isoform (Homo sapiens), P42336 [E545A]; conditions: Compound concentration 1000.0 nM
[31] = biological target: Phosphatidylinositol 4,5-bisphosphate 3-kinase catalytic subunit beta isoform (Homo sapiens) (UniProt P42338); conditions: Compound concentration 1000.0 nM
[32] = biological target: 1-phosphatidylinositol 3-phosphate 5-kinase (Homo sapiens) (UniProt Q9Y2I7); conditions: Compound concentration 1000.0 nM
[33] = biological target: Serine/threonine-protein kinase pim-2 (Homo sapiens) (UniProt Q9P1W9); conditions: Compound concentration 1000.0 nM
[34] = biological target: Protein kinase C iota type (Homo sapiens) (UniProt P41743); conditions: Compound concentration 1000.0 nM
[35] = biological target: RAF proto-oncogene serine/threonine-protein kinase (Homo sapiens) (UniProt P04049); conditions: Compound concentration 1000.0 nM
[36] = biological target: Rho-associated protein kinase 1 (Homo sapiens) (UniProt Q13464); conditions: Compound concentration 1000.0 nM
[37] = biological target: Rho-associated protein kinase 2 (Homo sapiens) (UniProt O75116); conditions: Compound concentration 1000.0 nM
[38] = biological target: SNF-related serine/threonine-protein kinase (Homo sapiens) (UniProt Q9NRH2); conditions: Compound concentration 1000.0 nM
[39] = biological target: Vascular endothelial growth factor receptor 2 (Homo sapiens) (UniProt P35968); conditions: Compound concentration 1000.0 nM
[40] = biological target: Mitogen-activated protein kinase kinase kinase 20 (Homo sapiens) (UniProt Q9NYL2); conditions: Compound concentration 1000.0 nM
[41] = biological target: Tyrosine-protein kinase ZAP-70 (Homo sapiens) (UniProt P43403); conditions: Compound concentration 1000.0 nM
[42] = biological target: 5-hydroxytryptamine receptor 1E (Homo sapiens) (UniProt P28566); conditions: Compound concentration 10.0 uM
[43] = biological target: D(1A) dopamine receptor (Homo sapiens) (UniProt P21728); conditions: Compound concentration 10.0 uM
[44] = biological target: Sodium-dependent noradrenaline transporter (Homo sapiens) (UniProt P23975); conditions: Compound concentration 10.0 uM
[45] = biological target: Delta-type opioid receptor (Homo sapiens) (UniProt P41143); conditions: Compound concentration 10.0 uM

Epidermal growth factor receptor (Homo sapiens), P00533 [UNDEFINED MUTATION], sequence (P00533 whole entry, looked up, change not shown): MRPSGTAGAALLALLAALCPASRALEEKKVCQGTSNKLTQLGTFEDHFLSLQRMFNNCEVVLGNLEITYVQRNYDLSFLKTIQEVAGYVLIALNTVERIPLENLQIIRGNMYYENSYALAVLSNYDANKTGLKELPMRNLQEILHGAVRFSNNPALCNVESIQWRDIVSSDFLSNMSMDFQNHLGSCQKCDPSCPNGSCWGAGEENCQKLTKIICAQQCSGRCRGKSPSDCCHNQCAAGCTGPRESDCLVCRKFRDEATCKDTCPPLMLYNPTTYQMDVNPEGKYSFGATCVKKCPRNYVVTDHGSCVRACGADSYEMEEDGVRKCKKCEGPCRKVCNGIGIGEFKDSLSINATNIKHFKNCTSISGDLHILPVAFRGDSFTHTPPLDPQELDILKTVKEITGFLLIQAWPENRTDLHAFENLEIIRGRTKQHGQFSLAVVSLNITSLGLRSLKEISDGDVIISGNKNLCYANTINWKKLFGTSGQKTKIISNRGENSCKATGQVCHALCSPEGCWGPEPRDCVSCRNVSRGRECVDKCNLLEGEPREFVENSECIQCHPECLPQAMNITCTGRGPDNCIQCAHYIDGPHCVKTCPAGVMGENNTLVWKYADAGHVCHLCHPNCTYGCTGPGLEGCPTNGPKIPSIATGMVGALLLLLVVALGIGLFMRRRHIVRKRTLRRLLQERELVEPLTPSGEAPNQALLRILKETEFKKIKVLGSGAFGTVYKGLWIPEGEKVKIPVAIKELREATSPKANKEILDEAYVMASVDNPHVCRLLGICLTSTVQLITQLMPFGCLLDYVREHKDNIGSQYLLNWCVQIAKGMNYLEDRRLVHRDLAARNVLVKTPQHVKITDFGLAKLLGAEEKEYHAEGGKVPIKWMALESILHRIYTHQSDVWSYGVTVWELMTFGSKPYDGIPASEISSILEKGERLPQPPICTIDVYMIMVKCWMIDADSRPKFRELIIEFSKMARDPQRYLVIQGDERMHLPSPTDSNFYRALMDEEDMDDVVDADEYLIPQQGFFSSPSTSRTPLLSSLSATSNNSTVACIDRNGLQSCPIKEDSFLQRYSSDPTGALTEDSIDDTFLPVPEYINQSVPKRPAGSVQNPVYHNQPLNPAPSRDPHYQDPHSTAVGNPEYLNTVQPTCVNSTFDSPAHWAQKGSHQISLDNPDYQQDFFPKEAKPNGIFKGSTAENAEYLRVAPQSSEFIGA
MAP/microtubule affinity-regulating kinase 4 (Homo sapiens), sequence (Q96L34 whole entry): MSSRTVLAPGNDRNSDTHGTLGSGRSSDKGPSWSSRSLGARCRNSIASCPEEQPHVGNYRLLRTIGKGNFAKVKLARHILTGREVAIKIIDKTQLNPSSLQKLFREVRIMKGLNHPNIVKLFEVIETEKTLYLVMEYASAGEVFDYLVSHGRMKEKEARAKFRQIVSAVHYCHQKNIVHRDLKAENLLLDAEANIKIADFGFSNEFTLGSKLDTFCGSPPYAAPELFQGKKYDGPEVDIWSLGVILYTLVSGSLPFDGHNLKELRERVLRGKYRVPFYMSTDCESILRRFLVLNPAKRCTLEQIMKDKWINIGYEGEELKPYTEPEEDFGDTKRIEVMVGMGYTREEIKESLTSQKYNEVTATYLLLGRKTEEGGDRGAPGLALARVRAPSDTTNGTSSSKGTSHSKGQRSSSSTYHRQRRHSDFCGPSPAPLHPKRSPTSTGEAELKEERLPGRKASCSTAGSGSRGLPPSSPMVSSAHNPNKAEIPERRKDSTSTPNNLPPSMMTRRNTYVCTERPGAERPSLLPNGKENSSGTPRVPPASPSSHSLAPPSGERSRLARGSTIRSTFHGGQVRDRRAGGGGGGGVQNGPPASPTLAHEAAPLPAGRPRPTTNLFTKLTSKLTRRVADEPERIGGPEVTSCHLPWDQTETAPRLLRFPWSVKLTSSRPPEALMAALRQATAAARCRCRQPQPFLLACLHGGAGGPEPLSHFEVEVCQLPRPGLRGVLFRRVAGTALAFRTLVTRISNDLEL
Myosin-IIIb (Homo sapiens), sequence (Q8WXR4 whole entry): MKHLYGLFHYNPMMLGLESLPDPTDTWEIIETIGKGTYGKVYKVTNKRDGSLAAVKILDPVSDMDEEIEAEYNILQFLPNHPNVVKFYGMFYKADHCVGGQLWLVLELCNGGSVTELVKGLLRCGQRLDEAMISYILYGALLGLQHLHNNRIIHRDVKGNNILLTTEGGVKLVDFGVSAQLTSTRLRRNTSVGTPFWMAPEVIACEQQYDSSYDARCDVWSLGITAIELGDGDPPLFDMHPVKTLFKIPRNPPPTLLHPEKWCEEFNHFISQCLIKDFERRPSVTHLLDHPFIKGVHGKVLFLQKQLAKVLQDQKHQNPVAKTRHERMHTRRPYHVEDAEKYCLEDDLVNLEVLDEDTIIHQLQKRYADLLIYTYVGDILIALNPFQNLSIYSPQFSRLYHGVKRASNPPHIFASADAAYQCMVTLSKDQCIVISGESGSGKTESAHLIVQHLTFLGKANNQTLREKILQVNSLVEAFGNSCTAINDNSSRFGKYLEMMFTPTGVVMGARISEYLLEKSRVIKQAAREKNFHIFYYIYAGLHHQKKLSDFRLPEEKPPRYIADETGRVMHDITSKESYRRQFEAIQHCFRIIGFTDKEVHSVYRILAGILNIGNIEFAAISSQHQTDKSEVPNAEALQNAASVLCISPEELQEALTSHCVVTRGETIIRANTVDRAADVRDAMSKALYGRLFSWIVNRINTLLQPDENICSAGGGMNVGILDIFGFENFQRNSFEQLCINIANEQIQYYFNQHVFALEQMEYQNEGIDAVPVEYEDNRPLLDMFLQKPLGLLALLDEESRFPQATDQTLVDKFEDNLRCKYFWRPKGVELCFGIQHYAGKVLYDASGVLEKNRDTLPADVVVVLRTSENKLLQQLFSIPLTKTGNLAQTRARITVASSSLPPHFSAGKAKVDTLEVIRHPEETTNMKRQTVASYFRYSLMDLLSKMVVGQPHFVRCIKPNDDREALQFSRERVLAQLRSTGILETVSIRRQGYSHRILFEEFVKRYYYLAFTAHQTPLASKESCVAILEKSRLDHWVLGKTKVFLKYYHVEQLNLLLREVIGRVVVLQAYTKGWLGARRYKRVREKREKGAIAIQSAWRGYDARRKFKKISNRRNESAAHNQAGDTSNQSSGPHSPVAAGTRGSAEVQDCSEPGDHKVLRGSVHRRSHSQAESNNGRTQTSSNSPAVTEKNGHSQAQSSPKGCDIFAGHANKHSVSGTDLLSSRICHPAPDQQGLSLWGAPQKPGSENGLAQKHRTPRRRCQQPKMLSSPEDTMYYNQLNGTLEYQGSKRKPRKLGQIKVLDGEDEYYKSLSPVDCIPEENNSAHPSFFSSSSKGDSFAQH
Serine/threonine-protein kinase 38-like (Homo sapiens), sequence (Q9Y2H1 2-464 limits assumed): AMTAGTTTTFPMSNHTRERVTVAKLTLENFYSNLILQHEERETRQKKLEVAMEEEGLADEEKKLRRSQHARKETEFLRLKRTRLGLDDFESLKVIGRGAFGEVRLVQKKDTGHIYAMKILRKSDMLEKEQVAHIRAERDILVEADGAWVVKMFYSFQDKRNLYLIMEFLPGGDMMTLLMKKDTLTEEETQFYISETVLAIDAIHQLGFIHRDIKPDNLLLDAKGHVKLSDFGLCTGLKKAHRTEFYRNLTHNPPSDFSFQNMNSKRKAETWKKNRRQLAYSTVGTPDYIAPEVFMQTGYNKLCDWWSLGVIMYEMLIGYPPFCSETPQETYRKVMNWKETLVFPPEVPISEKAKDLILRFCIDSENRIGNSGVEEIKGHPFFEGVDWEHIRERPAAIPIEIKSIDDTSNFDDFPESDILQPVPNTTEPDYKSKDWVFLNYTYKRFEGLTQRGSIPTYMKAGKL
Phosphatidylinositol 4,5-bisphosphate 3-kinase catalytic subunit beta isoform (Homo sapiens), sequence (P42338 whole entry, looked up, canonical isoform): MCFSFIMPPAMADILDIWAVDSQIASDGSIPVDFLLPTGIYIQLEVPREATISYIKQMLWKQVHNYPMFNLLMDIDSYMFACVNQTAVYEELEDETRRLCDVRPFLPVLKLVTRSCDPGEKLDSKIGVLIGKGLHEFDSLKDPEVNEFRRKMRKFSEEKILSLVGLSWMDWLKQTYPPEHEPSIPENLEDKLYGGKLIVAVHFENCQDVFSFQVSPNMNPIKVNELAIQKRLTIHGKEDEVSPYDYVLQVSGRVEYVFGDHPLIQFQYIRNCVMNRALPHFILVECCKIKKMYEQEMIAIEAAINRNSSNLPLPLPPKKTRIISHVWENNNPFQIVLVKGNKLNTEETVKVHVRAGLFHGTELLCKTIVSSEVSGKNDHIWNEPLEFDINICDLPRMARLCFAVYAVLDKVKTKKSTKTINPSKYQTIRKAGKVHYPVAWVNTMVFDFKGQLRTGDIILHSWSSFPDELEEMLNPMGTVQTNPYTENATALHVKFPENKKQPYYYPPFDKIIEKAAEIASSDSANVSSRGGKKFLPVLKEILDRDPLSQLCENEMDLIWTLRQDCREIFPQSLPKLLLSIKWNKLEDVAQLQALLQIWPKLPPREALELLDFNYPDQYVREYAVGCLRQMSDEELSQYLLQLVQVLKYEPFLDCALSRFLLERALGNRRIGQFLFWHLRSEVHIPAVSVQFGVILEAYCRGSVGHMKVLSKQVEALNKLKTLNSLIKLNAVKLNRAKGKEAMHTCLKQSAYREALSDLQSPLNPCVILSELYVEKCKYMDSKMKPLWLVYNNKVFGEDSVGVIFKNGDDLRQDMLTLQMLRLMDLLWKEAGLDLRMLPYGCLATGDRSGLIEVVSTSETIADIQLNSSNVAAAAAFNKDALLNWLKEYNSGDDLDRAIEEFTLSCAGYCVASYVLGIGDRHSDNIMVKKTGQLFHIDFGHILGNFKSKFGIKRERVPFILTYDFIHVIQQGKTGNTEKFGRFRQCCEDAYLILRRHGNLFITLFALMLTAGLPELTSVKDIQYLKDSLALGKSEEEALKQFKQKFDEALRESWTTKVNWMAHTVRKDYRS

## Cc1nc(Cc2cccc(C(F)(F)F)c2)sc1-c1ccc(C(N)=O)nc1 [TP-024n]
[1]
  residual activity: 100%
[2]
  residual activity: 100%
[3]
  residual activity: 92%
[4]
  residual activity: 100%
[5]
  residual activity: 100%
[6]
  residual activity: 100%
[7]
  residual activity: 100%
[8]
  residual activity: 88%
[9]
  residual activity: 92%
[10]
  residual activity: 100%
[11]
  residual activity: 100%
[12]
  residual activity: 100%
[13]
  residual activity: 100%
[14]
  residual activity: 90%
[15]
  residual activity: 100%
[16]
  residual activity: 96%
[17]
  residual activity: 100%
[18]
  residual activity: 92%
[19]
  residual activity: 100%
[20]
  residual activity: 83%
[21]
  residual activity: 85%
[22]
  residual activity: 100%
[23]
  residual activity: 100%
[24]
  residual activity: 100%
[25]
  residual activity: 81%
[26]
  residual activity: 44%
[27]
  residual activity: 100%
[28]
  residual activity: 92%
[29]
  residual activity: 82%
[30]
  residual activity: 100%
[31]
  residual activity: 83%
[32]
  residual activity: 75%
[33]
  residual activity: 64%
[34]
  residual activity: 100%
[35]
  residual activity: 70%
[36]
  residual activity: 69%
[37]
  residual activity: 59%
[38]
  residual activity: 84%
[39]
  residual activity: 86%
[40]
  residual activity: 73%
[41]
  residual activity: 93%
[42]
  inhibition: 9.13%
[43]
  inhibition: -6.03%
[44]
  inhibition: -8.77%
[45]
  inhibition: 4.01%

## Cc1cc(-n2nc(Cc3cc(F)cc(C(F)(F)F)c3)nc2C)ccc1C(N)=O [TP-024]
[1]
  residual activity: 100%
[2]
  residual activity: 100%
[3]
  residual activity: 100%
[4]
  residual activity: 100%
[5]
  residual activity: 86%
[6]
  residual activity: 100%
[7]
  residual activity: 100%
[8]
  residual activity: 94%
[9]
  residual activity: 100%
[10]
  residual activity: 100%
[11]
  residual activity: 100%
[12]
  residual activity: 100%
[13]
  residual activity: 100%
[14]
  residual activity: 78%
[15]
  residual activity: 100%
[16]
  residual activity: 100%
[17]
  residual activity: 100%
[18]
  residual activity: 99%
[19]
  residual activity: 100%
[20]
  residual activity: 77%
[21]
  residual activity: 100%
[22]
  residual activity: 84%
[23]
  residual activity: 100%
[24]
  residual activity: 100%
[25]
  residual activity: 83%
[26]
  residual activity: 49%
[27]
  residual activity: 100%
[28]
  residual activity: 98%
[29]
  residual activity: 87%
[30]
  residual activity: 100%
[31]
  residual activity: 85%
[32]
  residual activity: 70%
[33]
  residual activity: 83%
[34]
  residual activity: 100%
[35]
  residual activity: 87%
[36]
  residual activity: 100%
[37]
  residual activity: 96%
[38]
  residual activity: 100%
[39]
  residual activity: 100%
[40]
  residual activity: 99%
[41]
  residual activity: 82%
[42]
  inhibition: 10.5%
[43]
  inhibition: -4.72%
[44]
  inhibition: -6.7%
[45]
  inhibition: -1.45%

Reference: ChEMBL document CHEMBL4507305, “Data for DCP probe TP-024” (2021)
